Reference: patent publication US20240025906A1 (NEURON23, INC., priority 2022, published 2024)

Experiments:
[1] = tested on: JAK1/TYK2 pSTAT5 (Tyr694/699) in THP-1 cell line; test: IFNa-stimulated JAK1/TYK2 pSTAT5 (Tyr694/699) inhibition cellular assay, AlphaLISA; type: cell-based; conditions: Homo sapiens; THP-1 cells, IFNa-stimulated pSTAT5 (Tyr694/699), AlphaLISA (Assay B); read-out: Cellular_THP1_IFNa-pSTATS_TYK2
How it was run: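 THP-1 cells (2e4/well) in HBSS preincubated 1 h at 37° C. with compound (final 10000–0.04 nM, 8 points, 6-fold), then stimulated with IFNa (100 ng/mL stock) for 30 min before lysis. pSTAT5 (Tyr694/699) read by AlphaLISA at 615 nm; IC50 from four-parameter logistic fit with bottom fixed at 0 and Hill slope at −1.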

TYK2 JH2 = biological target: T1, TYK2 JH2 (Homo sapiens, UniProt P29597); test: TYK2 JH2 binding assay (KINOMEscan KdELECT competitive binding); conditions: TYK2 JH2 domain, KINOMEscan KdELECT (Assay A); read-out: Biochemical TYK2_DiscoverX_JH2_BND_Kd
T1 construct: purchased DiscoverX (KINOMEscan KdELECT service); host or cells: E. coli BL21-derived (T7 phage display) or HEK-293
T1 sequence (P29597 589-875 limits assumed): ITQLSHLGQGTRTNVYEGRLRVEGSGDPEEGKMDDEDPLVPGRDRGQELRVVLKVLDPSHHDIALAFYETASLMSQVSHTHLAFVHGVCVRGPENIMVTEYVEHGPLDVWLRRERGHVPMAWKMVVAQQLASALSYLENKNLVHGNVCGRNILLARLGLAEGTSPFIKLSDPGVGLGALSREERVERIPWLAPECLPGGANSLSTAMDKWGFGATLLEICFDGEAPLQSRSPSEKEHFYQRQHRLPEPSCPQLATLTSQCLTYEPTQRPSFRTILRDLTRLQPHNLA
How it was run: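 The assay measures displacement of DNA- or phage-tagged TYK2 pseudokinase domain from an affinity resin; compound binding lowers the amount captured, read by qPCR. Incubation lasts 1 h at room temperature.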

SMILES	IC50 [1]	Kd (TYK2 JH2)
CN=S(C)(=O)c1ccc(C#Cc2cnc(NC)c3cnc(NC(=O)C4CC4)cc23)cc1 (centres unmarked) [Example 1002, N-(5-((4-(N,S-dimethylsulfonimidoyl)phenyl)ethynyl)-8-(methylamino)-2,7-naphthyridin-3-yl)cyclopropanecarobxamide]	≤ 500 nM	≤ 100 nM
CNc1ncc(C#Cc2cn(C)c(C)n2)c2cc(NC(=O)C3CC3)ncc12 [Example 1003, N-(5-((1,2-dimethyl-1H-imidazol-4-yl)ethynyl)-8-(methylamino)-2,7-naphthyridin-3-yl)cyclopropanecarboxamide]	≤ 500 nM	≤ 100 nM
CNc1ncc(C#Cc2cnc(C)n2C)c2cc(NC(=O)C3CC3)ncc12 [Example 1004, N-(5-((1,2-dimethyl-1H-imidazol-5-yl)ethynyl)-8-(methylamino)-2,7-naphthyridin-3-yl)cyclopropanecarboxamide]	≤ 500 nM	≤ 100 nM
CNc1ncc(C#Cc2ccc3c(c2)OC(C)CO3)c2cc(NC(=O)C3CC3)ncc12 (centres unmarked) [Example 1005, N-(5-((3-methyl-2,3-dihydrobenzo[b][1,4]dioxin-6-yl)ethynyl)-8-(methylamino)-2,7-naphthyridin-3-yl)cyclopropanecarboxamide]	≤ 500 nM	≤ 100 nM
CNc1ncc(C#Cc2cn(C(F)F)c(C)n2)c2cc(NC(=O)C3CC3)ncc12 [Example 1006, N-(5-((1-(difluoromethyl)-2-methyl-1H-imidazol-4-yl)ethynyl)-8-(methylamino)-2,7-naphthyridin-3-yl)cyclopropanecarboxamide]	≤ 500 nM	≤ 100 nM
CNc1ncc(C#Cc2cn(C)nn2)c2cc(NC(=O)C3CC3)ncc12 [Example 1007, N-[8-(methylamino)-5-[2-(1-methyltriazol-4-yl)ethynyl]-2,7-naphthyridin-3-yl]cyclopropanecarboxamide]	≤ 500 nM	≤ 100 nM
CNc1ncc(C#Cc2cn(C)cn2)c2cc(NC(=O)[C@H]3C[C@H]3C)ncc12 [Example 1008, (1S,2R)-2-methyl-N-(5-((1-methyl-1H-imidazol-4-yl)ethynyl)-8-(methylamino)-2,7-naphthyridin-3-yl)cyclopropane-1-carboxamide]	≤ 500 nM	≤ 100 nM
CNc1ncc(C#Cc2cn(C)nn2)c2cc(NC(=O)[C@H]3C[C@H]3C)ncc12 [Example 1009]	≤ 500 nM	≤ 100 nM
CNc1ncc(C#Cc2cn(C)c(C)n2)c2cc(NC(=O)[C@H]3C[C@H]3C)ncc12 [Example 1010, (1S,2R)-N-(5-((1,2-dimethyl-1H-imidazol-4-y)ethynyl)-8-(methylamino)-2,7-naphthyridin-3-yl)-2-methylcyclopropane-1-carboxamide]	≤ 500 nM	≤ 100 nM
CNc1ncc(C#Cc2cnc(C)n2C)c2cc(NC(=O)[C@H]3C[C@H]3C)ncc12 [Example 1011]	≤ 500 nM	≤ 100 nM
CNc1ncc(C#Cc2nccc3cc(C)sc23)c2cc(NC(=O)C3CC3)ncc12 [Example 1012, N-(8-(methylamino)-5-((2-methylthieno[2,3-c]pyridin-7-yl)ethynyl)-2,7-naphthyridin-3-yl)cyclopropanecarboxamide]	≤ 500 nM	≤ 100 nM
CNc1ncc(C#Cc2ccc3c(c2)CCC3=O)c2cc(NC(=O)C3CC3)ncc12 [Example 1013, N-(8-(methylamino)-5-((1-oxo-2,3-dihydro-1H-inden-5-yl)ethynyl)-2,7-naphthyridin-3-yl)cyclopropanecarboxamide]	≤ 500 nM	≤ 100 nM
CNc1ncc(C#Cc2cccc3c2OCCC3)c2cc(NC(=O)C3CC3)ncc12 [Example 1014, N-(5-(chroman-8-ylethynyl)-8-(methylamino)-2,7-naphthyridin-3-yl)cyclopropanecarboxamide]	≤ 500 nM	≤ 100 nM
CNc1ncc(C#Cc2ccc3[nH]ccc3c2)c2cc(NC(=O)C3CC3)ncc12 [Example 1015, N-(5-((1H-indol-5-yl)ethynyl)-8-(methylamino)-2,7-naphthyridin-3-yl)cyclopropanecarboxamide]	≤ 500 nM	≤ 100 nM
CNc1ncc(C#Cc2nccc3ncsc23)c2cc(NC(=O)C3CC3)ncc12 [Example 1016, N-(8-(methylamino)-5-(thiazolo[5,4-c]pyridin-4-ylethynyl)-2,7-naphthyridin-3-yl)cyclopropanecarboxamide]	≤ 500 nM	≤ 100 nM
CNc1ncc(C#Cc2ccc3c(c2)C(=O)N(C)C3)c2cc(NC(=O)C3CC3)ncc12 [Example 1017, N-(5-((2-methyl-3-oxoisoindolin-5-yl)ethynyl)-8-(methylamino)-2,7-naphthyridin-3-yl)cyclopropanecarboxamide]	≤ 500 nM	≤ 100 nM
CNc1ncc(C#Cc2c(C)nn(C)c2C)c2cc(NC(=O)C3CC3)ncc12 [Example 1018, N-(8-(methylamino)-5-((1,3,5-trimethyl-1H-pyrazol-4-yl)ethynyl)-2,7-naphthyridin-3-yl)cyclopropanecarboxamide]	≤ 500 nM	≤ 100 nM
CNc1ncc(C#Cc2cccc3c2CCCC3=O)c2cc(NC(=O)C3CC3)ncc12 [Example 1019, N-(8-(methylamino)-5-((5-oxo-5,6,7,8-tetrahydronaphthalen-1-yl)ethynyl)-2,7-naphthyridin-3-yl)cyclopropanecarboxamide]	≤ 500 nM	≤ 100 nM
CNc1ncc(C#Cc2nc3ccccc3s2)c2cc(NC(=O)C3CC3)ncc12 [Example 1020, N-(5-(benzo[d]thiazol-2-ylethynyl)-8-(methylamino)-2,7-naphthyridin-3-yl)cyclopropanecarboxamide]	≤ 500 nM	≤ 100 nM
CNc1ncc(C#Cc2cnn3cccnc23)c2cc(NC(=O)C3CC3)ncc12 [Example 1021, N-(8-(methylamino)-5-(pyrazolo[1,5-a]pyrimidin-3-ylethynyl)-2,7-naphthyridin-3-yl)cyclopropanecarboxamide]	≤ 500 nM	≤ 100 nM

SMILES	IC50 [1]	Kd (TYK2 JH2)
CNc1ncc(-c2nc3ccc(N4CCOC(COC)C4)cn3n2)c2cc(NC(=O)C3CC3)ncc12 (centres unmarked) [Example 1022, N-(5-(6-(2-(methoxymethyl)morpholino)-[1,2,4]triazolo[1,5-a]pyridin-2-yl)-8-(methylamino)-2,7-naphthyridin-3-yl)cyclopropanecarboxamide]	≤ 500 nM	≤ 100 nM
CNc1ncc(-c2cn3ccc(OC)cc3n2)c2cc(NC(=O)C3CC3)ncc12 [Example 1025]	> 500 nM	≤ 100 nM
CNc1ncc(-c2nc3ccc(N4CCOC(C(C)(C)O)C4)cn3n2)c2cc(NC(=O)C3CC3)ncc12 (centres unmarked) [Example 1026]	≤ 500 nM	≤ 100 nM
CNc1ncc(-c2nc3ccc(N4CCO[C@@H](C(C)(C)O)C4)cn3n2)c2cc(NC(=O)C3CC3)ncc12 [Example 1027]	≤ 500 nM	≤ 100 nM
CNc1ncc(-c2nc3ccc(N4CCO[C@H](C(C)(C)O)C4)cn3n2)c2cc(NC(=O)C3CC3)ncc12 [Example 1028]	≤ 500 nM	≤ 100 nM
CNc1ncc(-c2nc3ccc(N4CCOC(CO)C4)cn3n2)c2cc(NC(=O)C3CC3)ncc12 (centres unmarked) [Example 1029]	≤ 500 nM	≤ 100 nM
CNc1ncc(-c2nc3ccc(N4CCO[C@@H](CO)C4)cn3n2)c2cc(NC(=O)C3CC3)ncc12 [Example 1030]	≤ 500 nM	≤ 100 nM
CNc1ncc(-c2nc3ccc(N4CCO[C@H](CO)C4)cn3n2)c2cc(NC(=O)C3CC3)ncc12 [Example 1031]	≤ 500 nM	≤ 100 nM
CNc1ncc(-c2nc3ccc(N4CCO[C@@H](C(C)(C)OC)C4)cn3n2)c2cc(NC(=O)C3CC3)ncc12 [Example 1032]	≤ 500 nM	≤ 100 nM
CNc1ncc(-c2nc3ccc(N4CCO[C@H](C(C)(C)OC)C4)cn3n2)c2cc(NC(=O)C3CC3)ncc12 [Example 1033]	≤ 500 nM	≤ 100 nM
CNc1ncc(-c2nc3ccc(C4=CCOCC4)cn3n2)c2cc(NC(=O)C3CC3)ncc12 [Example 1034]	≤ 500 nM	≤ 100 nM
CNc1ncc(-c2nc3ccc(C4CCOCC4)cn3n2)c2cc(NC(=O)C3CC3)ncc12 [Example 1035]	≤ 500 nM	≤ 100 nM
CNc1ncc(-c2nc3c(F)cc(N4CCOCC4)cn3n2)c2cc(NC(=O)C3CC3)ncc12 [Example 1036]	≤ 500 nM	≤ 100 nM
CNc1ncc(-c2nc3ccc(N4CC(C)(O)C4)cn3n2)c2cc(NC(=O)C3CC3)ncc12 [Example 1037]	≤ 500 nM	≤ 100 nM
CNc1ncc(-c2nc3ccc(-n4cccn4)cn3n2)c2cc(NC(=O)C3CC3)ncc12 [Example 1038]	≤ 500 nM	≤ 100 nM
CNc1ncc(-c2nc3cccc(OC)n3n2)c2cc(NC(=O)C3CC3)ncc12 [Example 1039]	≤ 500 nM	≤ 100 nM
CNc1ncc(-c2nc3ccc(C(F)F)cn3n2)c2cc(NC(=O)C3CC3)ncc12 [Example 1040]	≤ 500 nM	≤ 100 nM
CNc1ncc(-c2nc3ccc(C(C)(C)O)cn3n2)c2cc(NC(=O)C3CC3)ncc12 [Example 1041]	≤ 500 nM	≤ 100 nM
CNc1ncc(-c2nc3ccc(-c4ccn(C)n4)cn3n2)c2cc(NC(=O)C3CC3)ncc12 [Example 1042]	≤ 500 nM	≤ 100 nM
CNc1ncc(-c2nc3ccc(N4CCOC(C(C)O)C4)cn3n2)c2cc(NC(=O)C3CC3)ncc12 (centres unmarked) [Example 1043]	≤ 500 nM	≤ 100 nM
